The target in experiment [1] is T1, human CD38 enzyme in primary human CD4+ T cells (Homo sapiens, UniProt P28907).
T1 construct: whole primary human CD4+ T cells (from healthy donors); endogenous in cells
T1 sequence (P28907 1-300): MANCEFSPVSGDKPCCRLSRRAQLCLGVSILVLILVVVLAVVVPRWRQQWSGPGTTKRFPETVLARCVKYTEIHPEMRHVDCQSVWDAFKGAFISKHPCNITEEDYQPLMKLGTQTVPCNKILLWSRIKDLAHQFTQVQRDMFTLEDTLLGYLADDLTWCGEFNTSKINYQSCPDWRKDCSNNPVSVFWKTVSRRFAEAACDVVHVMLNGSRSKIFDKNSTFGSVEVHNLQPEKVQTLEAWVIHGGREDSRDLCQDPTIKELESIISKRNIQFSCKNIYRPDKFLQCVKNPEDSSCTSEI
Nature of the experiment: NAD+ hydrolase activity assay in primary human activated CD4+ T cells (Assay 7). In kind it is cell-based. As to conditions: primary human CD4+ T cells activated with anti-CD3/CD28. As to the method:
The in vitro potency of Compound 35 against the human CD38 enzyme was determined by a fluorescence-based NAD+ hydrolase activity assay using the NAD+ analog nicotinamide 1,N^6-etheno-adenine dinucleotide (εNAD+) as substrate. The assay utilized: 1) whole primary human CD4+ T cells (from healthy donors) activated with anti-CD3/CD28 antibodies and expressing human CD38; or II) whole primary human macrophages (from healthy donors) stimulated with LPS to polarize in a pro-inflammatory M1 state expressing human CD38. The cells were incubated in the presence of 8 different concentrations of Compound 35 for 10 minutes and the reaction was started adding the substrate εNAD+. The emission of fluorescence was measured at 410-20 nm at 37° C. every minute for 1 hr. The NAD+ hydrolase activity was calculated as the slope of the linear portion of the fluorescence-time curve and used to calculate the IC50 value.

In experiment [2] the test system is human liver microtissues (hepatocytes, Kupffer cells, endothelial and stellate cells) in NASH induction media. Kind of experiment: Human 3D NASH model (InSphero Human 3D InSight), release of inflammatory markers. In kind it is cell-based. As to conditions: supernatant, day 5. The method, then: The efficacy of Compound 35 was also determined in a NASH model (see InSphero Human 3D InSight™ Brunswick, ME) to investigate the effect of the molecule on the pathophysiological phenotype of NASH such as release of inflammatory markers. The microtissue model used is a co-culture of 4 different cell types of human liver cells (hepatocytes, Kupffer cells, endothelial and stellate cells) cultured for 10 days in a NASH induction media containing FFA, LPS and high levels of sugars. In the LEAN group the microtissues were cultured for 10 days in physiological-like medium. The reference compound, Selonsertib, a selective ASK1 inhibitor, was used as a down regulator of inflammatory markers. Cytokine and chemokine release in the supernatant were measured at day 5 using Magnetic Luminex® Assay (R&D Systems).

The target of experiment [3] is T2, CD38 (Mus musculus, UniProt P56528).
T2 construct: aged mice (male C57BL6/J, 22 months old) were fasted for 4 hr; from tissue; host or cells: C57BL6/J mice (aged, DIO obese or LPS-challenged); liver, spleen, plasma
T2 sequence (P56528 1-304): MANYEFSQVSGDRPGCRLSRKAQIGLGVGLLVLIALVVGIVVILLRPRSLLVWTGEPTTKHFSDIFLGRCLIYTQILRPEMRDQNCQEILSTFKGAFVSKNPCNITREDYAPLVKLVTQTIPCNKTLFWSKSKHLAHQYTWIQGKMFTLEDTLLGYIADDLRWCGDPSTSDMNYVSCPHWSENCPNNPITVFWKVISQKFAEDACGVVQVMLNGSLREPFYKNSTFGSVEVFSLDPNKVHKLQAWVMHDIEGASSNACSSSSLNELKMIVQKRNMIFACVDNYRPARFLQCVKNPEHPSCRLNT
Nature of the experiment: LPS-induced inflammation in mice, cytokines quantification in plasma. Format: in vivo. The method, then:
(§1) The in vivo efficacy of Compound 39 against the human CD38 enzyme after LPS challenge was assessed. The effects of Compound 39 (10 mg/kg and 30 mg/kg) on inflammato cytokines, inflammation markers and NAD+ levels at 4 h and 8 h points after LPS-induced inflammation in 12 weeks old male C57BL/6J mice were evaluated.
(§2) Animals were euthanized by terminal cardiac blood puncture immediately after terminal CO2, 4 h and 8 h after LPS administration. At necropsy, the tissues (Liver, Plasma, Spleen, Kidney, Lungs, Heart, Visceral Adipose Tissue, Muscle-Gastrocnemius) were collected and quick frozen in liquid nitrogen. The blood was collected in a BD Microtainer® K2EDTA Additive Tube, centrifuge at 1000 g for 10 min at 4° C. and plasma was store at −80° C.).

For experiment [4], the target named is T2, CD38. Kind of experiment: LPS-induced inflammation in mice, MS analysis of NAD+ metabolism in spleen and liver. In kind it is in vivo. The method, then:
as §1, §2

In experiment [5] the target is T2, CD38. Kind of experiment: LPS-induced inflammation in mice, gene expression analysis in spleen and liver. In kind it is in vivo.
The mark [6] stands for this setting: 4 hour post LPS challenge, 10 mg/kg.
The mark [7] stands for this setting: 4 hour post LPS challenge, 30 mg/kg.
Where [8] appears, read: 8 h post LPS challenge, 10 mg/kg and 30 mg/kg.
[9] abbreviates: 30 mg/kg, 8 hours post LPS challenge.

Each structure is given as a SMILES string.

The term IC50 denotes the midpoint of a concentration-inhibition curve. High values mean weaker potency in that assay, low ones greater potency in that assay. In turn, `COc1cc(C(=O)Nc2ccnc(C(F)(F)F)c2)nc(-n2ccnc2)c1` [Compound 35, 6-(1H-imidazol-1-yl)-4-methoxy-N-(2-(trifluoromethyl)pyridin-4-yl)picolinamide] gave an IC50 in experiment [1] of 0.179 nM. Besides, in experiment [2], the “release of NASH-induced inflammatory marker IL-8” value is “effectiveness in downregulating”, the “release of NASH-induced inflammatory marker IP-10/CXCL-10” value is on record as “effectiveness in downregulating”, the “release of NASH-induced inflammatory marker MIP-1α/CCL3” value is reported as “effectiveness in downregulating” and the “release of NASH-induced inflammatory marker TNFα” value is “effectiveness in downregulating”.

With `COCCOc1cc(C(=O)Nc2ccnc(C(F)(F)F)c2)nc(-n2ccnc2)n1` [Compound 39, 2-(1H-imidazol-1-yl)-6-(2-methoxyethoxy)-N-(2-(trifluoromethyl)pyridin-4-yl)pyrimidine-4-carboxamide], on CD38 [3] (setting [6]), the “decrease of plasma IL-6” value was 43% and the “decrease of plasma TNFα” value stood at 22%. Besides, the “plasma IP-10” value at CD38 [3] (4 hour post LPS challenge, 10 mg/kg and 30 mg/kg) is given as “statistically significant decrease”. Besides, on CD38 [3] (setting [7]), the “decrease of plasma IL-6” value is 75% and the “decrease of plasma TNFα” value was 58%. In addition, on CD38 [3] (setting [8]), the “plasma IL-6” value was “statistically significant decrease”, the “plasma IP-10” value is given as “statistically significant decrease” and the “plasma TNFα” value is “statistically significant decrease”. The “increase of NAD+ levels in liver” value on CD38 [4] (10 mg/kg, 8 hours post LPS challenge) worked out at 2 fold. At CD38 [4] (setting [9]), the “decrease of NAM levels in liver” value is recorded as 38% and the “increase of NAD+ levels in spleen” value is recorded as 2.3 fold. Besides, at CD38 [4] (30 mg/kg, 8 h treatment), the “decrease in ADPR levels in spleen” value stood at 40%. On CD38 [4] (treatment arms, 4 hours post LPS challenge), the “ADPR levels in liver” value is reported as “decrease”. For the same compound, on CD38 [5] (liver, 10 mg/kg and 30 mg/kg, 8 hour post LPS challenge), the “CD38 expression in liver” value is given as “statistically significant decrease”. Besides, on CD38 [5] (liver, after LPS challenge), the “IFNγ expression levels in liver” value is “statistically significant decrease”, the “IL-1β expression levels in liver” value is on record as “statistically significant decrease”, the “IL-6 expression levels in liver” value is recorded as “statistically significant decrease” and the “IP-10 expression levels in liver” value is “statistically significant decrease”. At CD38 [5] (liver, after LPS challenge), the “MCP1 expression levels in liver” value is “statistically significant decrease”, the “MIP1α expression levels in liver” value was “statistically significant decrease”, the “MIP2 expression levels in liver” value is given as “statistically significant decrease” and the “RANTES expression levels in liver” value is on record as “statistically significant decrease”. Besides, the “TNFα expression levels in liver” value on CD38 [5] (liver, after LPS challenge) is listed as “statistically significant decrease”. Moreover, at CD38 [5] (spleen, after LPS challenge), the “CD38 expression in spleen” value is recorded as “no significant changes”, the “IFNγ expression levels in spleen” value is listed as “statistically significant decrease”, the “IL-1β expression levels in spleen” value was “statistically significant decrease” and the “IL-6 expression levels in spleen” value is given as “statistically significant decrease”. Besides, on CD38 [5] (spleen, after LPS challenge), the “IP-10 expression levels in spleen” value is recorded as “statistically significant decrease”, the “MCP1 expression levels in spleen” value is on record as “statistically significant decrease”, the “MIP1α expression levels in spleen” value is listed as “statistically significant decrease” and the “MIP2 expression levels in spleen” value is on record as “statistically significant decrease”. Besides, on CD38 [5] (spleen, after LPS challenge), the “RANTES expression levels in spleen” value was “statistically significant decrease” and the “TNFα expression levels in spleen” value is reported as “statistically significant decrease”.

Source of the values: patent publication US12509451B2, “Heteroaryl amide inhibitors of CD38” (NAPA THERAPEUTICS LTD., priority 2020, dated 2025).
